The Kd is the equilibrium constant for the complex coming apart. Read a low Kd as tighter binding. Usually inhibition stands for the drop in the measured response relative to a control, in per cent.

One test deals with JAK2 kinase domain (JH1) (Homo sapiens (Human), UniProt O60674). In words: JAK2 Radioactive Kinase Assay. Format: biochemical. The note with it: for inhibition at 10 µM: read-out: JAK2 JH1% Inhibition @ 10 μM. In outline: (§1)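 Read-out is percent inhibition from a radioactive kinase reaction, measured with compound at 10 μM.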
JAK2 kinase domain (JH1), sequence (O60674 849-1124): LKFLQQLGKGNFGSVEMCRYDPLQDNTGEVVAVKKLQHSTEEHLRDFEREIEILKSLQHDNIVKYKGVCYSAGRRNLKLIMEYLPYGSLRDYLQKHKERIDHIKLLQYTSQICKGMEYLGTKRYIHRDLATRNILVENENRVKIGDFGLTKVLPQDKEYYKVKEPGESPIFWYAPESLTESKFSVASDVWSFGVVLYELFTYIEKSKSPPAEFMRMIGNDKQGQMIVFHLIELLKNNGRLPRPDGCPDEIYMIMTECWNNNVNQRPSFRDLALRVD
A further test addresses Tyk2 kinase domain (DH1) (Homo sapiens (Human), UniProt P29597). In words: Tyk2 Radioactive Kinase Assay. It counts as biochemical. The note with it: for inhibition at 10 µM: read-out: Tyk2 JH1% Inhibition @ 10 μM. In outline: as §1
The target of test [1] is human TYK2 (JH2domain-pseudokinase) (Homo sapiens (Human), UniProt P29597). Nature of the test: TYK2 JH2 Domain Binding Assay (KINOMEscan). In outline: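 Competition binding of a DNA-tagged fusion of human TYK2 JH2 pseudokinase (G556–D888) with NFkB DNA-binding domain, from HEK293 extracts (<0.1 nM final), against immobilised ligand beads; 1 h shaking at room temperature, 0.9% DMSO. Bound kinase quantified by qPCR.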
human TYK2 (JH2domain-pseudokinase), sequence (P29597 556-888): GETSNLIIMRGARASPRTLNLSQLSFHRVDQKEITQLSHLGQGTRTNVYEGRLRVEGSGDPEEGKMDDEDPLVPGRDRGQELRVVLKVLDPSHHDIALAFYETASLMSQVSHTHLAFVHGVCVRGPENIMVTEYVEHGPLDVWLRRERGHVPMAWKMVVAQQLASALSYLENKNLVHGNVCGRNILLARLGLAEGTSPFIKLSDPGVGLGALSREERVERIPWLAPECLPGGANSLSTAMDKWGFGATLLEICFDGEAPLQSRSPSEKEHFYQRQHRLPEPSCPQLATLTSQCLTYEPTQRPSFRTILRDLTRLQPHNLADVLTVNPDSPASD

Read-outs that look alike come from different tables or passages of the source. Where only a bound is given, the exact number is not on record here.

Tyk2 kinase domain (DH1), sequence (P29597 897-1176): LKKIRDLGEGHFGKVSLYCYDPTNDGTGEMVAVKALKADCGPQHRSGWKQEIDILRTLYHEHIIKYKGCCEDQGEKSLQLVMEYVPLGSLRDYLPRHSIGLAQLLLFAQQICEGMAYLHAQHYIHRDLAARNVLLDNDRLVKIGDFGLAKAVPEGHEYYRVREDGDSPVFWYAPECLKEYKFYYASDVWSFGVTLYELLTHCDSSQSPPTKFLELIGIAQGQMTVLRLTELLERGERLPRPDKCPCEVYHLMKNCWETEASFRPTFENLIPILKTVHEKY

Consider `CNc1cc(Nc2cccn([C@H]3CC[C@@H]3OC)c2=O)nc2c(C(=O)N[C@@H]3C[C@@H]3F)cnn12` [I-997], for which the “JAK2 JH1% Inhibition @ 10 μM” value on JAK2 kinase domain (JH1) (10 μM compound, 10 μM ATP) was “A (percent inhibition at 10 μM lower than 50)”. The “Tyk2 JH1% Inhibition @ 10 μM” value on Tyk2 kinase domain (DH1) (10 μM compound, 10 μM ATP) is “A (percent inhibition at 10 μM lower than 50)”. The equilibrium dissociation constant (Kd) in test [1] is less than 0.2 nM.
Consider `CNc1cc(Nc2cccc([C@@H]3CCCOC3)n2)nc2c(C(=O)N[C@@H]3CC[C@@H]3O)cnn12` [I-605], for which the inhibition at 10 µM at JAK2 kinase domain (JH1) (compound at 10 μM, ATP 10 μM) is less than 50%; at Tyk2 kinase domain (DH1) (compound at 10 μM, ATP 10 μM), less than 50%. The Kd in test [1] was less than 0.2 nM.
Take `CNc1cc(Nc2cc(Cl)cn(-c3cnn(C4CC4)c3C)c2=O)nc2c(C(=O)NC3CCC3)cnn12` [I-181]: the inhibition at 10 µM at JAK2 kinase domain (JH1) (compound at 10 μM, ATP 10 μM) is less than 50%; on Tyk2 kinase domain (DH1) (compound at 10 μM, ATP 10 μM), less than 50%. Moreover, the Kd in test [1] fell in the range of 0.2 to 1 nM.
On to `CNc1cc(Nc2cccc(N3CCOCC3)c2Cl)nc2c(C(N)=O)cnn12` [I-18], for which the inhibition at 10 µM at JAK2 kinase domain (JH1) (compound at 10 μM, ATP 10 μM) was less than 50%; at Tyk2 kinase domain (DH1) (compound at 10 μM, ATP 10 μM), less than 50%. This compound also showed a Kd in test [1] of less than 0.2 nM.
As to `CNc1cc(Nc2cccn([C@H]3CCC[C@@H](OC)C3)c2=O)nc2c(C(=O)NC3CC3)cnn12` [I-622], the inhibition at 10 µM on JAK2 kinase domain (JH1) (compound at 10 μM, ATP 10 μM) is less than 50%; on Tyk2 kinase domain (DH1) (compound at 10 μM, ATP 10 μM), less than 50%. The compound also had a Kd in test [1] of 0.2 to 1 nM.
Take `CNc1cc(Nc2cccc([C@@H]3CCCCO3)n2)nc2c(C(=O)N[C@@H]3CC[C@@H]3O)cnn12` [I-610]: the inhibition at 10 µM on JAK2 kinase domain (JH1) (compound at 10 μM, ATP 10 μM) is less than 50%; on Tyk2 kinase domain (DH1) (compound at 10 μM, ATP 10 μM) it was less than 50%. Besides, the Kd in test [1] is less than 0.2 nM.
Regarding `CNc1cc(Nc2cccn([C@H]3CC[C@H]3O)c2=O)nc2c(C(=O)NC3CC3)cnn12` [I-1103], the inhibition at 10 µM was less than 50% on JAK2 kinase domain (JH1) (10 μM compound, 10 μM ATP) and less than 50% on Tyk2 kinase domain (DH1) (10 μM compound, 10 μM ATP). The same compound had a Kd in test [1] of 1 to 10 nM.
For `CNc1cc(Nc2cccn([C@H]3CCCN(C)C3)c2=O)nc2c(C(=O)NC3CC3)cnn12` [I-511], the inhibition at 10 µM was less than 50% at JAK2 kinase domain (JH1) (compound at 10 μM, ATP 10 μM) and less than 50% on Tyk2 kinase domain (DH1) (compound at 10 μM, ATP 10 μM). This compound gave a Kd in test [1] of 0.2 to 1 nM.
With `CNc1cc(-c2cn(C(C)C)c3ncc(C)cc23)nc2c(C(=O)NC3CCC3)cnn12` [I-256], the inhibition at 10 µM is less than 50% on JAK2 kinase domain (JH1) (compound at 10 μM, ATP 10 μM) and less than 50% on Tyk2 kinase domain (DH1) (compound at 10 μM, ATP 10 μM). In test [1], this compound showed a Kd of 0.2 to 1 nM.
As for `CNc1cc(Nc2c(F)ccn(C(C)C)c2=O)nc2c(C(=O)NC3CC3)cnn12` [I-623], the inhibition at 10 µM on JAK2 kinase domain (JH1) (compound at 10 μM, ATP 10 μM) is less than 50%; on Tyk2 kinase domain (DH1) (compound at 10 μM, ATP 10 μM), less than 50%. In addition, the Kd in test [1] is 1 to 10 nM.
In the case of `CNc1cc(Nc2cccc(N3CC4(CCO4)C3)n2)nc2c(C(=O)N[C@@H]3CC[C@@H]3O)cnn12` [I-873], the inhibition at 10 µM on JAK2 kinase domain (JH1) (10 μM compound, 10 μM ATP) is less than 50%; at Tyk2 kinase domain (DH1) (10 μM compound, 10 μM ATP) it was less than 50%. This compound also showed a Kd in test [1] of 1 to 10 nM.
Take `CNc1cc(Nc2cccc([C@H]3CCCOC3)n2)nc2c(C(=O)N[C@@H]3COC[C@@H]3O)cnn12` [I-775]: the “JAK2 JH1% Inhibition @ 10 μM” value on JAK2 kinase domain (JH1) (compound at 10 μM, ATP 10 μM) was “A (percent inhibition at 10 μM lower than 50)”. For the same compound, the “Tyk2 JH1% Inhibition @ 10 μM” value at Tyk2 kinase domain (DH1) (compound at 10 μM, ATP 10 μM) was “A (percent inhibition at 10 μM lower than 50)”. The Kd in test [1] was less than 0.2 nM.
Turning to `CNc1cc(Nc2cccn([C@@H]3CCOC3)c2=O)nc2c(C(=O)NC3CC3)cnn12` [I-202], the inhibition at 10 µM on JAK2 kinase domain (JH1) (compound at 10 μM, ATP 10 μM) was less than 50%; at Tyk2 kinase domain (DH1) (compound at 10 μM, ATP 10 μM), less than 50%. The Kd in test [1] fell in the range of 0.2 to 1 nM.
`CNc1cc(Nc2cccn(CCOC)c2=O)nc2c(C(=O)N[C@H]3C[C@H]3F)cnn12` [I-268]: the inhibition at 10 µM was less than 50% at JAK2 kinase domain (JH1) (compound at 10 μM, ATP 10 μM) and less than 50% at Tyk2 kinase domain (DH1) (compound at 10 μM, ATP 10 μM). For the same compound, the Kd in test [1] was less than 0.2 nM.
As for `CNc1cc(Nc2cccn(-c3cnn(C[C@@H]4CCOC4)c3)c2=O)nc2c(C(=O)NC3CC3)cnn12` [I-600], the inhibition at 10 µM is less than 50% at JAK2 kinase domain (JH1) (compound at 10 μM, ATP 10 μM) and less than 50% at Tyk2 kinase domain (DH1) (compound at 10 μM, ATP 10 μM). The Kd in test [1] was less than 0.2 nM.
For `CNc1cc(Nc2cccn(C3CCN(CCF)CC3)c2=O)nc2c(C(=O)N[C@@H]3CC[C@H]3O)cnn12` [I-845], the inhibition at 10 µM is less than 50% on JAK2 kinase domain (JH1) (10 μM compound, 10 μM ATP) and less than 50% on Tyk2 kinase domain (DH1) (10 μM compound, 10 μM ATP). In addition, the dissociation constant Kd in test [1] was less than 0.2 nM.

The record behind these values is patent US10508120B2, “TYK2 inhibitors and uses thereof” (Nimbus Lakshmi, Inc., priority 2017, dated 2019).
